From US8551958B2, “Galactosylated pro-drugs of non-steroidal anti-inflammatories with improved pharmacokinetic characteristics and reduced toxicity of the starting drug” (Stewart Italia Srl, priority 2008, dated 2013)
Entries after “also recorded” stand apart in the source; their conditions may differ.

Assay: Pharmacokinetic studies (plasma, stomach, kidney, liver)
Type: in vivo, Wistar rats
Description: The pharmacokinetic profile of Ketogal and of ketorolac was evaluated in Wistar rats by measuring the concentration of the two compounds in the plasma, in the stomach, in the kidney, and in the liver. The rats received ketorolac (0.100 mg/kg) or Ketogal (0.163 mg/kg) by oral route and were sacrificed after 1 h, 2 h, 4 h, and 6 h from administration. The various specimens were treated with acetonitrile, and the suspension was “vortexed” and centrifuged at 3000 r.p.m. for 10 min. The organic phase was injected in the same HPLC system used for the stability assays.

SMILES: O=C(c1ccccc1)c1ccc2n1CC[C@@H]2C(=O)OCC1O[C@H](O)C(O)C(O)[C@H]1O (mixture of isomers) [Ketogal, ketorolac-D-galactos-6′-yl ester]
- Oral availability (compared with ketorolac): better oral availability than ketorolac; also recorded: increased the oral availability of ketorolac
- Behaviour of the pro-drug in the stomach (oral, Ketogal 0.163 mg/kg): hydrolyses progressively, releasing ketorolac
- Presence of the pro-drug in plasma (oral, Ketogal 0.163 mg/kg): the pro-drug was not present
- Presence of the pro-drug in the kidney (oral, Ketogal 0.163 mg/kg): no traces of the pro-drug
- Presence of the pro-drug in the liver (oral, Ketogal 0.163 mg/kg): Ketogal reappeared
- Concentration of ketorolac in the liver after Ketogal versus drug alone (oral, Ketogal 0.163 mg/kg versus ketorolac 0.100 mg/kg): always higher following upon administration of Ketogal
- Plasma levels of ketorolac after administration of Ketogal versus ketorolac as such (oral, Ketogal 0.163 mg/kg, ketorolac 0.100 mg/kg, 1 h, 2 h, 4 h, 6 h): higher than the ones observed following upon administration of the drug as such
